Measured values from US20260176289A1, “SMALL MOLECULE INHIBITORS OF KRAS PROTEINS” (Merck Sharp & Dohme LLC, priority 2022, published 2026).
Where two headings read alike, the source gives them in different places.

Columns and labels:
KRAS-G12D = KRAS-G12D (Homo sapiens, UniProt P01116, G12D); test: SOS-catalyzed nucleotide exchange assay (Procedure A, TR-FRET), KRAS-G12D; type: biochemical; conditions: nucleotide exchange, read-out: KRAS G12D GNE IC50
Source text: (§1) Procedure for SOS-Catalyzed Nucleotide Exchange Assay for KRAS-WT, G12C/D/V, G13D, HRAS, and NRAS (Procedure A)
(§2) Recombinant KRAS-G12C protein used in this assay has an additional triple mutation (C51S/C80L/C118S). Whereas KRAS-WT, G12D/V, G13D, HRAS and NRAS are in context of their WT protein sequence background. Specifically, the SOS-catalyzed nucleotide exchange assay utilizes a preformed TR-FRET complex containing a specific biotinylated RAS protein (KRAS-WT, G12C/V/D, G13D, HRAS, NRAS; described above) with Bodipy-GDP, and Terbium-streptavidin. Compounds are preincubated with this complex for 60 minutes. Subsequently, recombinant human SOS protein and unlabeled GTP are added to initiate the exchange reaction. Small molecule inhibitors stabilize the Bodipy-GDP complex whereas the untreated protein rapidly exchanges Bodipy-GDP for unlabeled GTP resulting in reduced TR-FRET signal.
(§3) To assemble the preformed TR-FRET complexes, each biotinylated RAS protein is diluted to 2 μM in an EDTA Buffer (20 mM HEPES pH 7.5, 50 mM sodium chloride, 10 mM EDTA, and 0.01% Tween) and incubated at room temperature for one hour. This mixture is then further diluted to 90 nM in an Assay Buffer (20 mM HEPES pH 7.5, 150 mM sodium chloride, 10 mM magnesium chloride, and 0.005% Tween) containing 15 nM of Terbium-Streptavidin (Invitrogen, catalog #PV3577) and 900 nM of Bodipy-GDP (Invitrogen, catalog #G22360) and incubated at room temperature for six hours. It should be noted that this preformed TR-FRET complex for each of the RAS protein were made ahead of time, aliquoted and stored at −80° C. until the day of the experiment.
(§4) Each test compound (10 mM stock in DMSO) is diluted in DMSO to make a final-10-point, 3-fold dilution and is acoustically dispensed into a 384-well assay plate (Corning, catalog #3820) using an Echo 550 (Labcyte). Each well of the assay plate receives 3 μL of a specific 3×RAS preformed TR-FRET complex and 3 μL of Assay Buffer and is incubated at room temperature for 60 minutes (preincubation time). Each well then receives 3 μL of 3×recombinant human SOS protein and GTP (Sigma, G8877) in Assay Buffer and is incubated at room temperature for 30 minutes (G13D), 60 minutes (KRAS WT/G12C/D, H/NRAS) or 90 minutes for G12V. The final reaction in each well of 9 μL consists of 3 mM GTP, specific Ras and SOS proteins in the following concentrations: KRAS-G12C/SOS=3 nM/40 nM, KRAS-WT and G12D/SOS=1 nM/40 nM, KRAS-G12V/SOS=1.25 nM/160 nM. KRAS-G13D/SOS=1.25 nM/0 nM, HRAS and NRAS=1.25 nM/40 nM.
(§5) The time-resolved fluorescence resonance energy transfer (TR-FRET) signal is measured on an Envision (PerkinElmer) plate reader: Excitation filter=340 nm; emission 1=495 nm; emission2=520 nm; dichroic mirror=D400/D505; delay time=[…]. The signal of each well is determined as the ratio of the emission at 520 nm to that at 495 nm. Percent effect of each well is determined after normalization to control wells containing DMSO (no effect) or a saturating concentration of inhibitor (max effect). The apparent effect as a function of compound concentration is fit to a four-parameter logistic equation.

AsPC-1 cells = test: Cellular phospho-ERK assay, AsPC-1 cells (homozygous KRAS-G12D); type: cell-based; conditions: Homo sapiens, ASPC1, 2 h, read-out: AsPC1 pERK IC50
Procedure: Procedure for Cellular Phospho-ERK Assay in KRAS Wild Type and Mutant (G12D, G12V) Cell Lines
MKN-1 cells (JCRB JCRB0252) containing amplified wild-type KRAS, were cultured in growth medium that contains RPMI 1640-GlutaMAX™-I (ThermoFisher Scientific 61870) containing 10% heat inactivated fetal bovine serum (ThermoFisher Scientific 10091148), 1 mM sodium pyruvate and 10 mM HEPES. PANC08.13 cells (ATCC® CRL-2551™), containing homozygous KRAS-G12D activating mutation, were cultured in growth medium made of RPMI1640-GlutaMAX™-I (ThermoFisher Scientific 61870) containing 15% heat inactivated fetal bovine serum (ThermoFisher Scientific 10091148)). AsPC-1 cells (ATCC® CRL-1682™), containing homozygous KRAS-G12D activating mutation, were cultured in T150 flask in growth medium (RPMI medium 1640-GlutaMAX™-I (ThermoFisher Scientific 61870) containing 10% fetal bovine serum (ThermoFisher Scientific 10091148)). SW620 cells (ATCC® […]), containing homozygous KRAS-G12V activating mutation, were cultured in growth medium that contains RPMI 1640-GlutaMAX™-I (ThermoFisher Scientific 61870) containing 10% heat inactivated fetal bovine serum (ThermoFisher Scientific 10091148).
Cells for the assay were harvested in growth medium after TrypLE (ThermoFisher scientific 12604021) digestion and were seeded in a 384-well collagen coated cell culture plate (Corning 356702) at a density of 10,000-15,000 cells/20 μL/well, and incubated at 37° C., 5% CO2 overnight. The compound (with 10 mM stock concentration) dose-response titrations were prepared [30 μM final ERK detection assay concentration and 1:3 dilutions, 10-point dose response] and appropriate amounts (270 nL) of test compounds were dispensed in a 384-well intermediate plate using an Echo 550 liquid handler. 30 μL/well of RPMI medium 1640-GlutaMAX™—I was added to the intermediate plate and the contents of the intermediate plate (10 μL/well) were then transferred to the 384-well collagen coated cell culture plate, which was incubated at 37° C., 5% CO2 for 2 hours. After removal of medium from the collagen coated cell culture plate, cells were lysed in lysis buffer from Alpha SureFire® Ultra™ Multiplex p-ERK and total ERK assay kit (PerkinElmer MPSU-PTERK) containing Halt™ Protease and Phosphatase inhibitor cocktail (ThermoFisher Scientific 78446) at room temperature with constant shaking at 300 rpm for 30 minutes. The cell lysates were then transferred to an OptiPlate-384 plate (PerkinElmer 6005620), and the phosphorylation of ERK (p-ERK) and total ERK levels were detected by Alpha SureFire® Ultra™ Multiplex p-EEK kit and total ERK assay kit (PerkinElmer MPSU-PTERK) following the manufacturer's protocol. Assay plates were read on a En Vision Multimode Plate Reader (PerkinElmer), and the ratio of p-ERK vs. total ERK in each well was used as the final readout. Dose response curves were analyzed using a 4-parameter logistic model to calculate IC50 values using Spotfire software.

KRAS-WT = KRAS-WT (Homo sapiens, UniProt P01116); test: SOS-catalyzed nucleotide exchange assay (Procedure A, TR-FRET), KRAS-WT; type: biochemical; conditions: nucleotide exchange, read-out: KRAS WT GNE IC50
Source text: as §1, §2, §3, §4, §5

KRAS-G12V = KRAS-G12V (Homo sapiens, UniProt P01116, G12V); test: SOS-catalyzed nucleotide exchange assay (Procedure A, TR-FRET), KRAS-G12V; type: biochemical; conditions: nucleotide exchange, read-out: KRAS G12V GNE IC50
Source text: as §1, §2, §3, §4, §5

Sequence of KRAS-WT (P01116 with tags, fused parts or gaps isoform P01116-2): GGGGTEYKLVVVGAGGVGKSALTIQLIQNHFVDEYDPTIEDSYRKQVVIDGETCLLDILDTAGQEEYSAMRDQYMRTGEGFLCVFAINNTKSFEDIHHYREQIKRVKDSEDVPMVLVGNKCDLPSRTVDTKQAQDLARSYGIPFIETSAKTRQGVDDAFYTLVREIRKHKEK
Sequence of KRAS-G12V (P01116 with tags, fused parts or gaps isoform P01116-2 G12V): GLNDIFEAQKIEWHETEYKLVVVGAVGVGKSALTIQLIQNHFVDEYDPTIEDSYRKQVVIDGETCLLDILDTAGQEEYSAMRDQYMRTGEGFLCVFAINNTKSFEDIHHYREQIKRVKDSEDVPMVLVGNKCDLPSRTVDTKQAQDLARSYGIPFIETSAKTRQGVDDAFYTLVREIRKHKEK
Sequence of KRAS-G12D (P01116 with tags, fused parts or gaps isoform P01116-2 G12D): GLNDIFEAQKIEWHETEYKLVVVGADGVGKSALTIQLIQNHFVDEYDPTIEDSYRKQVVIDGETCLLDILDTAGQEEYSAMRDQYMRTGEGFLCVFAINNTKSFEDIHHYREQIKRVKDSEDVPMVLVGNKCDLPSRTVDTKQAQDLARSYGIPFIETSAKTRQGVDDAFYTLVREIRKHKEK

| IC50 (KRAS-G12D) [nM] | IC50 (AsPC-1 cells; 2 hours compound incubation) [nM] | IC50 (KRAS-WT) [nM] | IC50 (KRAS-G12V) [nM] | IC50 (AsPC-1 cells; KRAS-G12D, 2 hours) [nM] | SMILES |
| --- | --- | --- | --- | --- | --- |
| 3.02 | 111 | 11.4 | 12.5 | – | COC1CC2(C1)CN(C[C@@]1(COc3nc(N4CCOC[C@@](C)(O)C4)c4c(n3)sc3c(-c5c(C6(F)CC6)c(Cl)cc6[nH]ncc56)nccc34)CC1(F)F)C2 [Ex-263, (6S)-4-(8-(6-chloro-5-(1-fluorocyclopropyl)-1H-indazol-4-yl)-2-(((R)-2,2-difluoro-1-((6-methoxy-2-azaspiro[3.3]heptan-2-yl)methyl)cyclopropyl)metho-xy)pyrido[4′,3′:4,5]thieno[2,3-d]pyrimidin-4-yl)-6-methyl-1,4-oxazepan-6-ol] |
| 29.3 | 246 | 104 | 46 | – | C=C1CN2C[C@@H](F)C[C@@]2(COc2nc(N3CCOC[C@@](C)(O)C3)c3c(n2)sc2c(-c4c(C5CC5)c(Cl)cc5[nH]ncc45)nccc23)C1 [Ex-222, (6S)-4-(8-(6-chloro-5-cyclopropyl-1H-indazol-4-yl)-2-(((2S,7aR)-2-fluoro-6-methylenetetra-hydro-1H-pyrrol-izin-7a(5H)-yl)methoxy)pyrido [4′,3′:4,5]thieno[2,3-d]pyrimidin-4-yl)-6-methyl-1,4-oxaze-pan-6-ol] |
| 140 | 711 | 699 | 207 | – | C[C@H]1CN(C[C@@]2(COc3nc(N4CCOC[C@@](C)(O)C4)c4c(n3)sc3c(-c5c(C6(F)CC6)c(Cl)cc6[nH]ncc56)nccc34)CC2(F)F)CCO1 [Ex-244, (6S)-4-(8-(6-chloro-5-(1-fluorocyclopropyl)-1H-indazol-4-yl)-2-(((R)-2,2-difluoro-1-(((S)-2-methylmorpholino)methyl)cy-clopropyl)methoxy)pyrido[4′, 3′:4,5]thieno[2,3-d]pyrimidin-4-yl)-6-methyl-1,4-oxazepan-6-ol] |

More lines, now with the values behind:

| SMILES | IC50 (KRAS-G12D) [nM] | IC50 (AsPC-1 cells; 2 hours compound incubation) [nM] | IC50 (KRAS-WT) [nM] | IC50 (KRAS-G12V) [nM] | IC50 (AsPC-1 cells; KRAS-G12D, 2 hours) [nM] |
| --- | --- | --- | --- | --- | --- |
| Cc1cc2[nH]ncc2c(-c2nccc3c2sc2nc(OC[C@@]45CCCN4C[C@H](F)C5)nc(N4CCOCC(O)(CF)C4)c23)c1C(F)(F)F (stereo partly drawn) [Ex-202, 6-(fluoromethyl)-4-(2-(((2R,7aS)-2-fluorotetra-hydro-1H-pyrrolizin-7a(5H)-yl)methoxy)-8-(6-methyl-5-(trifluoro-methyl)-1H-indazol-4-yl)-pyrido[4′,3′:4,5]thieno [2,3-d]pyrimidin-4-yl)-1,4-oxazepan-6-ol] | 97.5 | 701 | 292 | 229 | – |
| C[C@@]1(O)COCCN(c2nc(OC[C@@]34CCCN3C[C@H](F)C4)nc3sc4c(-c5c(C6(F)CC6)c(F)cc6[nH]ncc56)nccc4c23)C1 [Ex-53, (6S)-4-(8-(6-fluoro-5-(1-fluorocyclopropyl)-1H-indazol-4-yl)-2-(((2R,7aS)-2-fluorotetrahydro-1H-pyrrolizin-7a(5H)-yl)methoxy)pyrido[4′,3′:4,5]thi-eno[2,3-d]pyrimidin-4-yl)-6-methyl-1,4-oxazepan-6-ol] | 26.4 | – | 91.2 | 46.7 | 465 |
| CCC1=CC(F)(F)c2cc3[nH]ncc3c(-c3nccc4c3sc3nc(OC[C@@]56CCCN5C[C@H](F)C6)nc(N5CCOC[C@@](C)(O)C5)c34)c21 [Ex-114, (6S)-4-(8-(5-ethyl-7,7-difluoro-1,7-dihydrocyclopenta[f]inda-zol-4-yl)-2-(((2R,7aS)-2-fluorotetrahydro-1H-pyrrolizin-7a(5H)-yl)methoxy)pyrido[4′,3′:4,5]thi-eno[2,3-d]pyrimidin-4-yl)-6-methyl-1,4-oxazepan-6-ol] | 165 | – | 380 | 278 | 670 |
| C[C@@H]1C[C@@H](COc2nc(N3CCOC[C@@](C)(O)C3)c3c(n2)sc2c(-c4c(C5CC5)c(C(F)(F)F)cc5[nH]ncc45)nccc23)N(C)C1 [Ex-83, (6S)-4-(8-(5-cyclopropyl-6-(trifluoromethyl)-1H-indazol-4-yl)-2-(((2S,4R)-1,4-dimethylpyrrolidin-2-yl)methoxy)pyrido[4′,3′:4,5]thi-eno[2,3-d]pyrimidin-4-yl)-6-methyl-1,4-oxazepan-6-ol] | 80.1 | – | 130 | 103 | 1360 |
| C[C@H]1C[C@@H](COc2nc(N3CCOC[C@@](C)(O)C3)c3c(n2)sc2c(-c4c(C5CC5)c(C(F)(F)F)cc5[nH]ncc45)nccc23)N(C)C1 [Ex-82, (6S)-4-(8-(5-cyclopropyl-6-(trifluoromethyl)-1H-indazol-4-yl)-2-(((2S,4S)-1,4-dimethylpyrrolidin-2-yl)methoxy)pyrido[4′,3′:4,5]thi-eno[2,3-d]pyrimidin-4-yl)-6-methyl-1,4-oxazepan-6-ol] | 31.2 | – | 54.6 | 32.8 | 592 |
| Cc1cc2cnn(C)c2c(-c2nccc3c2sc2nc(OC[C@@]45CCCN4C[C@H](F)C5)nc(N4CCOC[C@@](C)(O)C4)c23)c1C(F)(F)F [Ex-157, (6S)-4-(8-(1,5-dimethyl-6-(trifluoromethyl)-1H-indazol-7-yl)-2-(((2R,7aS)-2-fluorotetrahydro-1H-pyrrolizin-7a(5H)-yl)methoxy)pyrido[4′,3′:4,5]thieno[2,3-d]pyrimidin-4-yl)-6-methyl-1,4-oxazepan-6-ol] | 288 | 1310 | 9650 | 4230 | – |
